Values joined by “and” are separate entries in the source; they are usually repeats but may differ in a detail not shown here. Identical values can stand only once.
Columns and labels:
mouse δ opioid receptor = target: T1, mouse δ opioid receptor (Mus musculus, UniProt P32300); assay: biochemical; type: binding
T1 construct: expressed in transfected cells; host or cells: CHO cells, stably transfected; membranes

rat μ opioid receptor = target: T2, rat μ opioid receptor (Rattus norvegicus, UniProt P33535); assay: biochemical; type: binding
T2 construct: expressed in transfected cells; host or cells: CHO cells, stably transfected; membranes

human κ-OR [1] = target: T3, human κ-OR (Homo sapiens, UniProt P41145); assay: Competitive inhibition of [3H]diprenorphine binding to CHO-κ-OR membranes; settings: for Ki: displacement of [3H]diprenorphine from CHO cell membranes expressing human κ-OR, n = 3, in duplicate, read-out: Ki ± SEM
T3 construct: expressed in transfected cells; host or cells: CHO cells, stably transfected; membranes

κ-OR (CHO-hκ-OR) = test system: T4, κ-OR (CHO-hκ-OR); assay: Antagonism of dynorphin A (10 nM) at κ-OR in the [35S]GTPγS assay; type: biochemical, human; settings: for [35S]GTPγS binding (% increase over basal), single experiments / [35S]GTPγS binding (% increase over basal), Mean: antagonist 3 μM; for [35S]GTPγS binding (% increase over basal), single experiments: without antagonist 130 and 296; for [35S]GTPγS binding (% increase over basal), Mean: without antagonist mean 213
T4 construct: expressed in transfected cells; host or cells: CHO cells, stably transfected; membranes

κ-OR = test system: κ-OR; design: method as in doi:10.1007/978-1-59745-197-0_6; settings: cited from earlier work
human κ-OR [2] = target: T3, human κ-OR; assay: biochemical

| SMILES | Ki (mouse δ opioid receptor) [nM] | Ki (rat μ opioid receptor) [nM] | Ki (human κ-OR [1]) [nM] | affinity for δ-OR (in words) (mouse δ opioid receptor) | [35S]GTPγS binding (% increase over basal), single experiments (κ-OR (CHO-hκ-OR)) | [35S]GTPγS binding (% increase over basal), Mean (κ-OR (CHO-hκ-OR)) [% increase over basal] | affinity for µ-OR (in words) (rat μ opioid receptor) | antagonism of dynorphin A (in words) (κ-OR (CHO-hκ-OR); primary screen at 3 μM) | Ke (κ-OR) [pM] | EC50 (human κ-OR [2]) [nM] | Emax (human κ-OR [2]) [%] | inhibition at 3 µM (human κ-OR [1]; 3 µM, κ-OR, read-out: inhibition (displacement) of [3H]diprenorphine binding, initial screening) [%] |
| --- | --- | --- | --- | --- | --- | --- | --- | --- | --- | --- | --- | --- |
| COC(=O)C1CC(OCOCCO)C(=O)C2C1(C)CCC1C(=O)OC(c3ccoc3)CC12C (stereo not drawn) [compound 6] | > 1000 | > 1000 | 12.7 ± 1.3 | – | – | – | – | – | – | – | – | – |
| COC(=O)C1CC(OC(C)=O)C(=O)C2C1(C)CCC1C(=O)OC(c3coc(CN(C)C)c3)CC12C (stereo not drawn) [compound 3] | – | – | > 1000 | no affinity | 146 % increase over basal and 270 % increase over basal | 208 | no affinity | – | – | – | – | – |
| COC(=O)C1CC(OC(C)=O)C(=O)C2C1(C)CCC1C(=O)OC(c3cc(CO)oc3CO)CC12C (stereo not drawn) [compound 5] | – | – | > 1000 | no affinity | 175 % increase over basal and 278 % increase over basal | 226 | no affinity | – | – | – | – | – |
| COC(=O)C1CC(OC(C)=O)C(=O)C2C1(C)CCC1C(=O)OC(c3ccoc3CN(C)C)CC12C (stereo not drawn) [compound 2] | – | – | > 1000 | no affinity | 182 % increase over basal and 319 % increase over basal | 251 | no affinity | – | – | – | – | – |
| CC(C)[C@@H](CN1CC[C@@](C)(c2cccc(O)c2)[C@@H](C)C1)NC(=O)[C@H]1Cc2ccc(O)cc2CN1 [JDTic, reference compound] | – | – | – | – | – | 0 | – | abolished response to dynorphin A | < 40 | – | – | – |
| COC(=O)C1CC(OC(C)=O)C(=O)C2C1(C)CCC1C(=O)OC(c3ccoc3CO)CC12C (stereo not drawn) [compound 4] | – | – | 110 ± 10 | – | 249 % increase over basal and 415 % increase over basal | 332 | – | – | – | 345 ± 47 | 103 | ≥ 50 |

Source: article PMC3896271 (Beilstein Journal of Organic Chemistry, 2013)
